According to ChEMBL document CHEMBL5143744, “Discovery of Tenapanor: A First-in-Class Minimally Systemic Inhibitor of Intestinal Na+/H+ Exchanger Isoform 3” (ACS Med Chem Lett, 2022):
Activity calls are given as the source filed them. No cut-off for these calls is given here.

Assays:
[1] = In vivo inhibition of NEH3 in Sprague-Dawley rat assessed as fecal form score at 3 mg/kg, po administered via gavage measured after 6 hrs; format: functional
[2] = In vivo inhibition of NEH3 in Sprague-Dawley rat assessed as fecal water content at 3 mg/kg, po administered via gavage measured after 6 hrs; format: functional; design: scale not given: the % may be the effect or the level left
[3] = Cmax in Sprague-Dawley rat at 28 mg/kg, po administered via gavage by LC-MS/MS analysis; format: ADME, organism-based; design: dose 28 mg/kg, route po; conditions: in vivo
[4] = AUC in Sprague-Dawley rat at 28 mg/kg, po administered via gavage by LC-MS/MS analysis; conditions: in vivo
[5] = In vivo inhibition of NEH3 in Sprague-Dawley rat assessed as sodium excretion in urine at 3 mg/kg, po administered via gavage measured after 16 hrs by ion chromatography relative to control; design: scale not given: the % may be the effect or the level left
[6] = biological target: T1, Sodium/hydrogen exchanger 3 (Homo sapiens, UniProt P48764); experiment: Inhibition of human NHE3 expressed in opossum kidney cells assessed as reduction in Na-HEPES buffer-mediated pH recovery in presence of NEH1 inhibitor ethyl isopropyl amiloride by BCECF-AM dye based fluorescence assay; format: cell-based, Kidney epithelial cell
T1 sequence (P48764 whole entry): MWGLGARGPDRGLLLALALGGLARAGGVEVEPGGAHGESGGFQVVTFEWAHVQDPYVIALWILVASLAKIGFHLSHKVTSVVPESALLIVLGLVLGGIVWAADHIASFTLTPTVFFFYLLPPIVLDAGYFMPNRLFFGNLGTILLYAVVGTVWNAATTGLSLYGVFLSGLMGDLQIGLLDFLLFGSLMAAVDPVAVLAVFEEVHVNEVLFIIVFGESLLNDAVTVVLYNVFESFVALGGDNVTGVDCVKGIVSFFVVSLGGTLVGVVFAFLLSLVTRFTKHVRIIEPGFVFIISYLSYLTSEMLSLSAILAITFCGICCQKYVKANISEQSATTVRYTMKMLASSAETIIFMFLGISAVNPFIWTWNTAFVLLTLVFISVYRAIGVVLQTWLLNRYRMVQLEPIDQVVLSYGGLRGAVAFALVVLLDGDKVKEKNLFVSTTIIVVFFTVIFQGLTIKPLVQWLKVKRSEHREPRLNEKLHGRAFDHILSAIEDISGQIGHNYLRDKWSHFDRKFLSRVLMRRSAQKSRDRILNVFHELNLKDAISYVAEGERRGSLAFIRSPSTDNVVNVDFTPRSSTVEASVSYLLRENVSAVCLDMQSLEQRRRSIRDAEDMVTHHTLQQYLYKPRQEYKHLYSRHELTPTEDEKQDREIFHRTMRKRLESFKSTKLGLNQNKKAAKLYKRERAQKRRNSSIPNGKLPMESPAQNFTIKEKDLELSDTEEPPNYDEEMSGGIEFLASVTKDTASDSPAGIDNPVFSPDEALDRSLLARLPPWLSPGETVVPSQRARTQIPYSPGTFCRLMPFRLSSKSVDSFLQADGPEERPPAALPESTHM

[7] = biological target: Sodium/hydrogen exchanger 3 (Rattus norvegicus, UniProt P26433); experiment: Inhibition of rat NHE3 expressed in opossum kidney cells assessed as reduction in Na-HEPES buffer-mediated pH recovery in presence of NEH1 inhibitor ethyl isopropyl amiloride by BCECF-AM dye based fluorescence assay; format: cell-based, Kidney epithelial cell
Sodium/hydrogen exchanger 3 (Rattus norvegicus, UniProt P26433), sequence (P26433 whole entry): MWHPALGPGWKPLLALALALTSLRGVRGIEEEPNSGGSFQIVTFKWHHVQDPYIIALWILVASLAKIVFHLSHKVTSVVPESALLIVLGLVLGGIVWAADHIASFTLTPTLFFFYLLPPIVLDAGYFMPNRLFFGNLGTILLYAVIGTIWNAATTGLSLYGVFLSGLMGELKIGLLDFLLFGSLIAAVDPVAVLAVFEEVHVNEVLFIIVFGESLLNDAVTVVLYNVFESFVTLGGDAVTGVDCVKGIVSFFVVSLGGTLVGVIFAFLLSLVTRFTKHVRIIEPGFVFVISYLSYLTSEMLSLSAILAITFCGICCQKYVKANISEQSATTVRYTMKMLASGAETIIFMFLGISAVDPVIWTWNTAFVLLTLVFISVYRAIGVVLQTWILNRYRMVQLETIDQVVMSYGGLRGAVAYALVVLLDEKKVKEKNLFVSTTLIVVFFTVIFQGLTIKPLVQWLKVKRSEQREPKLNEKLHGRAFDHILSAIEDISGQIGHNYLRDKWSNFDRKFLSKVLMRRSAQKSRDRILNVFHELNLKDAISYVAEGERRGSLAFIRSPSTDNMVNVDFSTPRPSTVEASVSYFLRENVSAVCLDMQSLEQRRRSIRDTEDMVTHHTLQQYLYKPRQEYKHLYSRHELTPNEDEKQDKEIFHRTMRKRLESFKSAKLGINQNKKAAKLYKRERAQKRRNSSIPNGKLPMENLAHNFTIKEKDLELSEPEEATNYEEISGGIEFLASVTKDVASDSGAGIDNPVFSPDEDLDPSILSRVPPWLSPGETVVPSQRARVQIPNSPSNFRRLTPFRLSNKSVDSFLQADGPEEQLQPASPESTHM

[8] = Cmax in Sprague-Dawley rat at 19 mg/kg, po administered via gavage by LC-MS/MS analysis; format: ADME, organism-based; design: dose 19 mg/kg, route po; conditions: in vivo
[9] = AUC in Sprague-Dawley rat at 19 mg/kg, po administered via gavage by LC-MS/MS analysis; conditions: in vivo
[10] = Cmax in Sprague-Dawley rat at 23 mg/kg, po administered via gavage by LC-MS/MS analysis; format: ADME, organism-based; design: dose 23 mg/kg, route po; conditions: in vivo
[11] = AUC in Sprague-Dawley rat at 23 mg/kg, po administered via gavage by LC-MS/MS analysis; conditions: in vivo
[12] = Cmax in Sprague-Dawley rat at […], po administered via gavage by LC-MS/MS analysis; format: ADME, organism-based; design: dose 7.2 mg/kg, route po; conditions: in vivo
[13] = Dose normalized AUC in Sprague-Dawley rat at […], po administered via gavage by LC-MS/MS analysis; format: ADME, organism-based; conditions: in vivo, dose 7.2 mg/kg
[14] = Dose normalized AUC in Sprague-Dawley rat at 5.3 mg/kg, po administered via gavage by LC-MS/MS analysis; format: ADME, organism-based; conditions: in vivo
[15] = Cmax in Sprague-Dawley rat at 17 mg/kg, po administered via gavage by LC-MS/MS analysis; format: ADME, organism-based; design: dose 17 mg/kg, route po; conditions: in vivo
[16] = AUC in Sprague-Dawley rat at 17 mg/kg, po administered via gavage by LC-MS/MS analysis; conditions: in vivo
[17] = tested on: Rattus norvegicus; experiment: In vivo inhibition of NEH3 in Sprague-Dawley rat assessed as reduction in sodium excretion in urine at 0.1 to 3 mg/kg, po administered via gavage measured after 16 hrs by ion chromatography; format: functional, organism-based; conditions: dose 0.1-3 mg/kg
[18] = In vivo inhibition of NEH3 in Sprague-Dawley rat assessed as increase in fecal water content at 0.1 to 3 mg/kg, po administered via gavage measured after 6 hrs; format: functional; design: scale not given: the % may be the effect or the level left; conditions: dose 0.1-3 mg/kg
[19] = Drug recovery in Sprague-Dawley rat feces at 0.3 mg/kg, po administered via gavage measured after 64 hrs by LC-MS/MS analysis; format: ADME, organism-based; conditions: faeces, read-out: Drug recovery
[20] = Drug metabolism in Sprague-Dawley rat feces at 0.3 mg/kg, po administered via gavage measured after 64 hrs by LC-MS/MS analysis; format: ADME, organism-based; conditions: in vivo
[21] = Cmax in Sprague-Dawley rat at 30 mg/kg, po administered via gavage by LC-MS/MS analysis; format: ADME, organism-based; design: dose 30 mg/kg, route po; conditions: in vivo
[22] = Drug metabolism in Sprague-Dawley rat at 30 mg/kg, po administered via gavage by LC-MS/MS analysis; format: ADME, organism-based; conditions: in vivo
[23] = biological target: hERG (KCNH2) (Homo sapiens, UniProt Q12809); experiment: Inhibition of human ERG at 10 uM relative to control; format: toxicity
hERG (KCNH2), sequence (Q12809 whole entry): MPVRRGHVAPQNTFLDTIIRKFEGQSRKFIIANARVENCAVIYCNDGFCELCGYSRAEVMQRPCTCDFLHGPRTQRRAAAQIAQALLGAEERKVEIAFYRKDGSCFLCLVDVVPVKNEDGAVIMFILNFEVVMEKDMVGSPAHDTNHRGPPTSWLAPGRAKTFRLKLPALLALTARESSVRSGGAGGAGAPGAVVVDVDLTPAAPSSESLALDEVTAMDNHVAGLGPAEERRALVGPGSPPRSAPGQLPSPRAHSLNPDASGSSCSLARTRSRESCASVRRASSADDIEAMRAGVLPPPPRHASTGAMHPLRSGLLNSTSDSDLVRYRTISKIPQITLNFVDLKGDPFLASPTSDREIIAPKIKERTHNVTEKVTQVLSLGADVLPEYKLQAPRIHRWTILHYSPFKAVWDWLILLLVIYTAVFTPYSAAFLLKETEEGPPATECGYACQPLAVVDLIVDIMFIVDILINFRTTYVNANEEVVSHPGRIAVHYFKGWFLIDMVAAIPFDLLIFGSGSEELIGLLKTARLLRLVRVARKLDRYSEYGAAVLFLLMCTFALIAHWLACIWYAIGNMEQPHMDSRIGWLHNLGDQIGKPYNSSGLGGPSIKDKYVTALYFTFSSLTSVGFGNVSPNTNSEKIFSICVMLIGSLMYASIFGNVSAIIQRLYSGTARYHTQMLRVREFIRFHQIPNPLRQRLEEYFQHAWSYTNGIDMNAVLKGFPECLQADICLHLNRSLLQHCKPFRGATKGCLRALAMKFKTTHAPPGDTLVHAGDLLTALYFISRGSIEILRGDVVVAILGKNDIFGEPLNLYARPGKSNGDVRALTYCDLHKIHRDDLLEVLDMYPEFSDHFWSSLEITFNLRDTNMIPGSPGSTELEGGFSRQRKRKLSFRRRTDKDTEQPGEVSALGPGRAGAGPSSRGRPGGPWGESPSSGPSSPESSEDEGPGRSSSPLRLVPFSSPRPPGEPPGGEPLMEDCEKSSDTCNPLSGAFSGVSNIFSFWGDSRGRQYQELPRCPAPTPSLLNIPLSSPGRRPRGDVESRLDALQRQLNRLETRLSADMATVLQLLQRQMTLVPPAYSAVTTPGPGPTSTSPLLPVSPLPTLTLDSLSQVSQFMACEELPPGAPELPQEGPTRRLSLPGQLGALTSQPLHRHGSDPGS

[24] = Cmax in Sprague-Dawley rat at 22 mg/kg, po administered via gavage by LC-MS/MS analysis; format: ADME, organism-based; design: dose 22 mg/kg, route po; conditions: in vivo
[25] = AUC in Sprague-Dawley rat at 22 mg/kg, po administered via gavage by LC-MS/MS analysis; conditions: in vivo
[26] = Drug recovery in Sprague-Dawley rat feces at 0.1 mg/kg, po administered via gavage measured after 72 hrs by LC-MS/MS analysis; format: ADME, organism-based; conditions: faeces, read-out: Drug recovery
[27] = Drug metabolism in Sprague-Dawley rat feces at 0.1 mg/kg, po administered via gavage measured after 72 hrs by LC-MS/MS analysis; format: ADME, organism-based; conditions: in vivo
[28] = Toxicity in Sprague-Dawley rat assessed as gross pathological changes at 30 mg/kg, po administered for 7 days measured on day 8 by necropsy; format: organism-based; conditions: in vivo, 192 h, time 8 day
[29] = Toxicity in Sprague-Dawley rat assessed as pathological changes at 30 mg/kg, po administered for 7 days measured on day 8 by microscopy; format: organism-based; conditions: in vivo, 192 h, time 8 day
[30] = Toxicity in Sprague-Dawley rat assessed as change in alanine aminotransferase level at 30 mg/kg, po administered for 7 days measured on day 8; format: organism-based; conditions: in vivo, 192 h, time 8 day
[31] = Toxicity in Sprague-Dawley rat assessed as change in aspartate aminotransferase level at 30 mg/kg, po administered for 7 days measured on day 8; format: organism-based; conditions: in vivo, 192 h, time 8 day
[32] = Toxicity in Sprague-Dawley rat assessed as diarrhea at 30 mg/kg, po administered for 7 days; format: organism-based; conditions: in vivo, 168 h, time 7 day
[33] = Cmax in Sprague-Dawley rat at 1.8 mg/kg, po administered via gavage by LC-MS/MS analysis; format: ADME, organism-based; design: dose 1.8 mg/kg, route po; conditions: in vivo
[34] = AUC in Sprague-Dawley rat at 1.8 mg/kg, po administered via gavage by LC-MS/MS analysis; conditions: in vivo

## CN1Cc2c(Cl)cc(Cl)cc2C(c2cccc(S(=O)(=O)NCCOCCOCCOCCNC(=O)CCC(=O)NCCOCCOCCOCCNS(=O)(=O)c3cccc(C4CN(C)Cc5c(Cl)cc(Cl)cc54)c3)c2)C1 (racemic)
[1]
  Activity: 1.5
[2]
  Activity: 54%
[3]
  Cmax: < 2 ng/mL
[4]
  AUC: < 8 ng·h/mL
[5]
  Activity: 56%

## CN1Cc2c(Cl)cc(Cl)cc2C(c2ccc(S(=O)(=O)NCCOCCOCCOCCNC(=O)c3ccc(C(=O)NCCOCCOCCOCCNS(=O)(=O)c4ccc(C5CN(C)Cc6c(Cl)cc(Cl)cc65)cc4)cc3)cc2)C1 (racemic)
[6]
  IC50: 0.0398 µM
[7]
  IC50: 0.0126 µM
[1]
  Activity: 1.5
[2]
  Activity: 56%
[8]
  Cmax: < 3 ng/mL
[9]
  AUC: < 9 ng·h/mL
[5]
  Activity: 50%

## CN1Cc2c(Cl)cc(Cl)cc2C(c2ccc(S(=O)(=O)NCCOCCOCCNC(=O)c3ccc(C(=O)NCCOCCOCCNS(=O)(=O)c4ccc(C5CN(C)Cc6c(Cl)cc(Cl)cc65)cc4)cc3)cc2)C1 (racemic)
[7]
  IC50: 0.398 µM
[1]
  Activity: 2
[2]
  Activity: 56%
[10]
  Cmax: < 3 ng/mL
[11]
  AUC: < 8 ng·h/mL
[5]
  Activity: 45%

## CN1Cc2c(Cl)cc(Cl)cc2C(c2cccc(S(=O)(=O)NCCOCCOCCOCCNC(=O)c3ccc(C(=O)NCCOCCOCCOCCNS(=O)(=O)c4cccc(C5CN(C)Cc6c(Cl)cc(Cl)cc65)c4)cc3)c2)C1 (racemic)
[6]
  IC50: 0.0501 µM
[7]
  IC50: 0.0251 µM
[1]
  Activity: 1
[2]
  Activity: 53%
[12]
  Cmax: < 4 ng/mL
[13]
  AUC: < 12 ng·h/mL
[5]
  Activity: 87%

## CN1Cc2c(Cl)cc(Cl)cc2C(c2ccc(S(=O)(=O)NCCOCCOCCOCCNC(=O)NCCOCCOCCOCCNS(=O)(=O)c3ccc(C4CN(C)Cc5c(Cl)cc(Cl)cc54)cc3)cc2)C1 (configuration not stated)
[2]
  Activity: 60%
[14]
  AUC: < 19 ng·h/mL
[5]
  Activity: 25%

## CN1Cc2c(Cl)cc(Cl)cc2C(c2ccc(S(=O)(=O)NCCOCCOCCNC(=O)NCCOCCOCCNS(=O)(=O)c3ccc(C4CN(C)Cc5c(Cl)cc(Cl)cc54)cc3)cc2)C1 (racemic)
[1]
  Activity: 1
[2]
  Activity: 49%
[15]
  Cmax: < 2 ng/mL
[16]
  AUC: < 8 ng·h/mL
[5]
  Activity: 107%

## CN1Cc2c(Cl)cc(Cl)cc2[C@H](c2cccc(S(=O)(=O)NCCOCCOCCNC(=O)COCC(=O)NCCOCCOCCNS(=O)(=O)c3cccc([C@@H]4CN(C)Cc5c(Cl)cc(Cl)cc54)c3)c2)C1
[17]
  inhibition: Active
[18]
  Activity: 10%
[19]
  dose excreted at 64 h: 117%
[20]
  Drug metabolism: Metabolite_Notdetected
[21]; Sprague-Dawley, read-out: Cmax
  Cmax: < 2 ng/mL
[22]
  Drug metabolism: Metabolite_Notdetected
[23]
  inhibition at 10 µM: < 50%

## CN1Cc2c(Cl)cc(Cl)cc2C(c2cccc(S(=O)(=O)NCCOCCOCCNC(=O)c3ccc(C(=O)NCCOCCOCCNS(=O)(=O)c4cccc(C5CN(C)Cc6c(Cl)cc(Cl)cc65)c4)cc3)c2)C1 (racemic)
[7]
  IC50: 6.31 µM
[1]
  Activity: 2
[2]
  Activity: 58%
[24]
  Cmax: < 2 ng/mL
[25]
  AUC: < 8 ng·h/mL
[5]
  Activity: 24%

## CN1Cc2c(Cl)cc(Cl)cc2[C@H](c2cccc(S(=O)(=O)NCCOCCOCCNC(=O)NCCCCNC(=O)NCCOCCOCCNS(=O)(=O)c3cccc([C@@H]4CN(C)Cc5c(Cl)cc(Cl)cc54)c3)c2)C1 [TENAPANOR]
[6]
  IC50: 0.000501 µM
[7]
  IC50: 0.0158 µM
[17]
  inhibition: Active
[18]
  Activity: 10%
[26]
  dose excreted at 72 h: 92%
[27]
  Drug metabolism: Metabolite_Detected
[21]
  Cmax: < 3 ng/mL
[22]
  Drug metabolism: Metabolite_Notdetected
[23]
  inhibition at 10 µM: < 50%
[28]
  Activity: Non-Toxic
[29]
  Activity: Non-Toxic
[30]
  Activity: Non-Toxic
[31]
  Activity: Non-Toxic
[32]
  Activity: Toxic

## CN1Cc2c(Cl)cc(Cl)cc2C(c2cccc(S(=O)(=O)NCCOCCOCCOCCNC(=O)NCCOCCOCCOCCNS(=O)(=O)c3cccc(C4CN(C)Cc5c(Cl)cc(Cl)cc54)c3)c2)C1 (racemic)
[6]
  IC50: 0.2 µM
[7]
  IC50: 0.1 µM
[1]
  Activity: 1
[2]
  Activity: 50%
[33]
  Cmax: < 20 ng/mL
[34]
  AUC: < 75 ng·h/mL
[5]
  Activity: 87%
